According to US5480885A, “Ergoline derivatives of 1-propinylamine, a process for the manufacture thereof and the use thereof for medicaments” (priority 1991, dated 1996):
“Also recorded” adds a separate entry of the source. Like-named read-outs stand apart in the source and are kept apart here.

Legend:
5-HT1A receptors [1] = assay: spontaneous tail-flicks in rats; format: in vivo, rat; conditions: 0.08 to 0.63 mg/kg s.c. (Example 1); 5.0 mg/kg s.c. (Example 2); in words
[2] = molecular target: T1, isolated rabbit thoracic aorta (serotonin) (Oryctolagus cuniculus, UniProt G1SYA7); conditions: for mode of inhibition of serotonin constriction: in words
T1 construct: isolated rabbit thoracic aorta; from tissue; host or cells: isolated rabbit thoracic aorta

5-HT2 receptors = molecular target: T2, 5-HT2 receptors (Mus musculus, UniProt P35363); assay: inhibition of the head twitch response after 5-HTP/carbidopa; format: in vivo, mice; conditions: ip, mice, 5-hydroxytryptophan/carbidopa, read-out: ID50, inhibition of head twitch response
T2 construct: The head twitch model in mice; from tissue; host or cells: living mice (central nervous system)
Procedure: The substance was injected 15 minutes prior to DL-5-HTP. The head twitch was recorded from 30 to 35 minutes after the DL-5-HTP injection (modified method according to Handley and Singh, Br. J. Pharmacol. 86, 297 (1985)).
The compound was injected 15 minutes prior to L-5-HTP (modified method according to Handley and Singh, Br. J. Pharmacol. 86, 297 (1985)).
The head twitch model in mice represents an experimental model for determining the hallucinogenic action of a compound (the method was described by Handley and Singh, Br.J.Pharmacol., 86, 297-303, 1985). It is believed that the response is conveyed via the 5-HT2 receptors.

5-HT1A receptors [3] = assay: inhibition of 8-OH-DPAT-caused spontaneous tail-flick in rats; format: in vivo, rat; conditions: in words
[4] = molecular target: T3, 5-HT1A serotoninergic receptor (Homo sapiens, UniProt P08908); assay: binding at [^3 H] 8-OH-DPAT binding site; conditions: for affinity to 5-HT1A receptor: [^3 H] 8-OH-DPAT, in words
T3 sequence (P08908 1-422): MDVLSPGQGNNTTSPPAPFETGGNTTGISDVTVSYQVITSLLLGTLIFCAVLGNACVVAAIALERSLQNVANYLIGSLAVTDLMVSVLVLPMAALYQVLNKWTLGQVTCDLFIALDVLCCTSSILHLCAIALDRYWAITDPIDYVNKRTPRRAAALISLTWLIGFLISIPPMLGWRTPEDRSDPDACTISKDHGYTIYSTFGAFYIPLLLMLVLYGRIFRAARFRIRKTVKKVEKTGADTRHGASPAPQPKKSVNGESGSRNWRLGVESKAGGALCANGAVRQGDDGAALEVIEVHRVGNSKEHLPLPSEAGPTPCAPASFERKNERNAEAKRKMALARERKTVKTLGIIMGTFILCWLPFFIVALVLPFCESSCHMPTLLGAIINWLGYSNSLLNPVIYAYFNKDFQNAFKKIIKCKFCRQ
From the text: (§1) Binding affinities of the compounds of Examples 1

D2 receptor = D2 receptor (Homo sapiens, UniProt P14416); assay: binding, [^3 H]Raclopride; conditions: for Ki: D2, [^3 H]Raclopride; for affinity for D2 receptors: in words
From the text: as §1

pupil = assay: dilatation of the pupil in mice (Pulewka); format: in vivo; conditions: 5 mg/kg i.p.; in words
sigma receptor [5] = assay: functional test, sigma receptor; conditions: in words
pithed rats = assay: vasoconstriction / diastolic pressure in pithed rats (Gillespie); format: in vivo, rat; conditions: vs control
[6] = system: pentobarbital-anesthetized normotensive rats; assay: blood pressure and heart rate in pentobarbital-anesthetized normotensive rats; format: in vivo, rat; conditions: 450 μg/kg i.v.; for maximum reduction in carotid artery pressure / reduction in heart rate: vs initial level
5-HT2 receptor = 5-HT2 receptor (Homo sapiens, UniProt P28223); assay: biochemical; format: binding; conditions: for affinity for 5-HT2 receptors: in words
From the text: as §1

sigma receptor [7] = assay: binding at [^3 H] DTG binding site; conditions: in words
[8] = system: isolated rat uterus (serotonin); assay: inhibition of serotonin-induced contractions of the isolated rat uterus; conditions: serotonin-induced contractions (serotonin 2.47×10^-8 M where printed)
[9] = molecular target: T3, 5-HT1A serotoninergic receptor; assay: functional test, 5-HT1A serotoninergic receptor; conditions: in words
uterus in rats = assay: blocking of spontaneous uterus contractions in rats; conditions: Rattus norvegicus; 1000 ng/ml
Procedure: At a concentration of 1000 ng/ml it caused a 100% blocking of spontaneous uterus contractions in rats (see Jalon).

isolated rat uterus = assay: uterotonic activity (isolated rat uterus); conditions: in words
[10] = system: urethane-anestetized normotensive rats; assay: adrenaline-induced vasopressoric response in urethane-anesthetized normotensive rats; format: in vivo, rat; conditions: 450 μg/kg i.v.; adrenaline 10 μg/kg i.v.
Procedure: In urethane-anestetized normotensive rats the compound (450 μg/kg, i.v.) intensified the adrenaline (10 μg/kg, i.v.)-induced vasopressoric response.

M1 muscarinic receptor [11] = assay: binding at [^3 H] pirenzepine binding site; conditions: in words
[12] = system: isolated rabbit thoracic aorta (noradrenaline); assay: inhibition of the constrictive activity of noradrenaline on the isolated rabbit thoracic aorta
D2 receptors [13] = molecular target: T4, D2 receptors (Rattus norvegicus, UniProt P61169); assay: apomorphine-induced locomotion; format: in vivo; conditions: sc, -45 min., apomorphine 0.4 mg/kg s.c., rats, read-out: ID50, apomorphine-induced locomotion
T4 construct: from tissue; host or cells: living rats (central nervous system)

D1 receptor = D1 receptor (Homo sapiens, UniProt P21728); assay: binding, [^3 H]SCH23390
From the text: (§2) Binding affinities of the compounds of Examples 5

[14] = prolongation of pentobarbital-induced anesthesia in mice; conditions: mouse, in vivo, ip
D2 receptors [15] = molecular target: T5, D2 receptors (Mus musculus, UniProt P61168); assay: apomorphine-induced climbing in mice; format: in vivo; conditions: ip, -30 min., apomorphine 1.5 mg/kg s.c., read-out: ID50, climbing behavior
T5 construct: from tissue; host or cells: living mice (central nervous system)
Procedure: The application of apomorphine in a dose of 1.5 mg/kg s.c. caused a characteristic climbing behavior in mice.

M1 muscarinic receptor [16] = assay: functional test, M1 muscarinic receptor; conditions: in words
[17] = blood pressure and heart rate in pentobarbital-anesthetized normotensive rats; format: in vivo, rat; conditions: rat, in vivo, iv; normotensive rats, pentobarbital-induced anesthesia; read-out: ED50, decrease of the mean arterial blood pressure
[18] = overall antipsychotic action and side-effect profile (summary statements); format: in vivo; conditions: in words
acetylcholine receptors = assay: oxotremorine-induced tremor in mice; format: in vivo; conditions: 20 to 70 mg/kg i.p.; oxotremorine 1.5 mg/kg s.c.; in words
[19] = system: isolated rabbit vena cava inferior; assay: venous constriction on the isolated rabbit vena cava inferior; conditions: 1×10^-7 M; in words
catalepsy in rats = format: in vivo, rat; conditions: rat, in vivo, sc; rats
Procedure: (§3) The s.c. application of the compounds of Example 5 (0.5 to 16 mg/kg) and of Example 8 (0.125 to 4 mg/kg), respectively, caused catalepsy in rats (the method was described by Morelli and Chiara, Europ. J. Pharmacol. 117, 179-185, 1985).

rats = assay: catalepsy in rats; format: in vivo, rat; conditions: in words
Procedure: as §3

[20] = spontaneous motor activity in mice; format: in vivo; conditions: mouse, in vivo, ip; mice; read-out: ID50, inhibition of spontaneous motor activity
mice = assay: spontaneous motor activity in mice; format: in vivo; conditions: two models (motor activity and pentobarbital anesthesia); vs haloperidol; in words
[21] = system: isolated rabbit vena cava (noradrenaline); assay: inhibition of noradrenaline venous constriction on the isolated rabbit vena cava; conditions: vs noradrenaline
α1 receptor = assay: binding, [^3 H]Prazosin
From the text: as §2

α1 receptors = assay: noradrenaline-induced lethality in rats; format: in vivo, rat; conditions: s.c.

Chain of D2 receptor (P14416 whole entry): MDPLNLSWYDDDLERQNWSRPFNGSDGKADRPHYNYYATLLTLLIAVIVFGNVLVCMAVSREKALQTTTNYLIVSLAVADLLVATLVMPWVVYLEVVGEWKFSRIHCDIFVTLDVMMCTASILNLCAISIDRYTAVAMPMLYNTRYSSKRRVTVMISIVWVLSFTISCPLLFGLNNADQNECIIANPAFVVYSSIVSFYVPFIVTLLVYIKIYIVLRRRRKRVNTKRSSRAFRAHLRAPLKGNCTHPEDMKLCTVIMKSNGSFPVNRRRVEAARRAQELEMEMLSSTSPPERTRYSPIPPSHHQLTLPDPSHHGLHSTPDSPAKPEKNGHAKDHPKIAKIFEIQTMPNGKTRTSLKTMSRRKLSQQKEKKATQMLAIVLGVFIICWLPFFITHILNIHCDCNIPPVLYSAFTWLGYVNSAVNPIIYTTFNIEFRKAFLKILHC
Chain of 5-HT2 receptor (P28223 whole entry): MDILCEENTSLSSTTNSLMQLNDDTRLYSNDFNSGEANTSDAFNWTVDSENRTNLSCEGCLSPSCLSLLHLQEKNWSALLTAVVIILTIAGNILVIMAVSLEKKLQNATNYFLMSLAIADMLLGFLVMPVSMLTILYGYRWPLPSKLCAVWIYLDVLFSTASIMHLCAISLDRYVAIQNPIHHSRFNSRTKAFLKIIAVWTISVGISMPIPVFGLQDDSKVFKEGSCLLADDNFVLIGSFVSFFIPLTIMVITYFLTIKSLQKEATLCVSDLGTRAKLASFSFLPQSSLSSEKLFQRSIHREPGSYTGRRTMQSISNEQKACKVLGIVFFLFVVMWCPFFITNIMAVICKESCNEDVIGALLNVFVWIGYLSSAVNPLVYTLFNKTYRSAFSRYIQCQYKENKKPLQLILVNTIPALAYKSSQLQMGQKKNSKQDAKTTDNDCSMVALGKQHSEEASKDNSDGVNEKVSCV
T1 sequence (G1SYA7 entry or part of it): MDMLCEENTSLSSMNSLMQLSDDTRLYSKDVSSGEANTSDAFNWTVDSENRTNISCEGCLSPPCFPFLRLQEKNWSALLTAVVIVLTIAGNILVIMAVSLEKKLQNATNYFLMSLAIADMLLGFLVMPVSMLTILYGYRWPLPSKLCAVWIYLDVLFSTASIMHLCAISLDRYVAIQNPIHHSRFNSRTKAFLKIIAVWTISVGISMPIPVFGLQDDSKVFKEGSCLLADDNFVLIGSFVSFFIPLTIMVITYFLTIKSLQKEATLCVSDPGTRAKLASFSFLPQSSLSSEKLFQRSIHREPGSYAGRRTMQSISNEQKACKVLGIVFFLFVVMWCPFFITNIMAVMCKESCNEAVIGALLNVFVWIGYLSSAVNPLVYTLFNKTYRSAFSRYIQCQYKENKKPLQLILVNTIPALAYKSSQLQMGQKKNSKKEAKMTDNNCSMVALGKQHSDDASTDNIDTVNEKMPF
Chain of D1 receptor (P21728 whole entry): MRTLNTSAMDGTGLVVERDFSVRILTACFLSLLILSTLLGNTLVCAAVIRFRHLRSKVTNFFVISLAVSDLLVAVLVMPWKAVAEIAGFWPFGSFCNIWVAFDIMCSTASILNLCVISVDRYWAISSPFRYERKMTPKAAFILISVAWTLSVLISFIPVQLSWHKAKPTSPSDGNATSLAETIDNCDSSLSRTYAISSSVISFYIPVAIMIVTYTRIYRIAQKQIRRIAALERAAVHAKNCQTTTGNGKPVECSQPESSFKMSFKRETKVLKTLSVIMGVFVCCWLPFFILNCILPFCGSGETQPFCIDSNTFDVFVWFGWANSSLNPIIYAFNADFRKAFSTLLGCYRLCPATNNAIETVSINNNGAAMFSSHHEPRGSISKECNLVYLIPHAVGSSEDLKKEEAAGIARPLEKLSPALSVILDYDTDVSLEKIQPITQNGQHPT
T5 sequence (P61168 whole entry): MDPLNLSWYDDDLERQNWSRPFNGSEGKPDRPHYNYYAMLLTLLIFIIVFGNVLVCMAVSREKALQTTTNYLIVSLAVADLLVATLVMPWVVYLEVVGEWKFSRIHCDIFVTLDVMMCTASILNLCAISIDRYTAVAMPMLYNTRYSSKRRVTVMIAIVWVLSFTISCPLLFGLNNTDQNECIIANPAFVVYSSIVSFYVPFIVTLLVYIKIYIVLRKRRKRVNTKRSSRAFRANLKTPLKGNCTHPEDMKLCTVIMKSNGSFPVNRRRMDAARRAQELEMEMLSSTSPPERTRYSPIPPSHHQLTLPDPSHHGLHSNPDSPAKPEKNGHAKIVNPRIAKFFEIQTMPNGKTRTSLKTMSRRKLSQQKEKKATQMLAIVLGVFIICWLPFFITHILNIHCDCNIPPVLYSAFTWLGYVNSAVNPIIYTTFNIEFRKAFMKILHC
T2 sequence (P35363 whole entry): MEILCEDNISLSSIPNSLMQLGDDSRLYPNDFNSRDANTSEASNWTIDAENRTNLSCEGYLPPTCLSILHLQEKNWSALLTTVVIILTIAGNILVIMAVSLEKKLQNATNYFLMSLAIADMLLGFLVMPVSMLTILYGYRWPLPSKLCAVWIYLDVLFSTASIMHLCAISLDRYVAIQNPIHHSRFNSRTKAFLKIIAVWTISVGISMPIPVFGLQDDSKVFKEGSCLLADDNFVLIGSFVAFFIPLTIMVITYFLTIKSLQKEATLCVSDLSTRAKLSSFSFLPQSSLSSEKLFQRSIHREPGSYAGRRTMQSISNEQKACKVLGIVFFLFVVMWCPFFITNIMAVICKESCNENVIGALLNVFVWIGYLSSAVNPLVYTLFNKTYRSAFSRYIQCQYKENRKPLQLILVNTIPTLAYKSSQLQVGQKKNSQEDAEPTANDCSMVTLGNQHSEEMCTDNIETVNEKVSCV
T4 sequence (P61169 whole entry): as the sequence (P61168 whole entry) above, with P29A counted along it

Structure (SMILES): C#CCNC(=O)[C@@H]1C=C2c3cccc4[nH]c(Br)c(c34)C[C@H]2N(C)C1 [Example 2, 2-Bromo-9,10-didehydro-N-(2'-propinyl)-6-methylergoline-8β-carboxamide]
- spontaneous tail-flick (5-HT1A receptors [1]): did not cause a spontaneous tail-flick in rats
- mode of inhibition of serotonin constriction [2]: competitively inhibited
- Kb ([2]; vs serotonin, read-out: pA2 (converted)): 7.41 nM
- ED50 (5-HT2 receptors): 8.2 mg/kg
- inhibition of 8-OH-DPAT-caused spontaneous tail-flick (5-HT1A receptors [3]; 0.63 to 5.0 mg/kg s.c., 8-OH-DPAT 2.5 mg/kg s.c.): strongly inhibit the spontaneous tail-flick in rats
- effect in tail-flick inhibition model compared with buspirone (5-HT1A receptors [3]): very similar to that of buspirone
- Ki ([4]; 5-HT1A, [^3 H]8-OH-DPAT): 206 nM
- affinity to 5-HT1A receptor [4]: somewhat lower affinity; also recorded: possessed affinity
- Ki (D2 receptor): 44 nM
- affinity for D2 receptors (D2 receptor): high affinity
- dilatation of the pupil (pupil): marked dilatation of the pupil
- functional activity at sigma receptor (sigma receptor [5]): indicated an antagonistic activity
- mean increase of the diastolic pressure (pithed rats; 450 μg/kg i.p.): 20%
- duration of the transient effect [6]: up to 20 minutes
- maximum reduction in carotid artery pressure [6]: 15%
- reduction in heart rate [6]: 5%
- Ki (5-HT2 receptor; 5-HT2, [^3 H]Ketanserin, read-out: Ki): 90 nM
- affinity for 5-HT2 receptors (5-HT2 receptor): high affinity
- affinity to sigma receptor (sigma receptor [7]): possessed affinity
- IC50 [8]: 26.9 nM
- functional activity at 5-HT1A [9]: did not indicate any activity
- inhibition at 1 µg/mL (uterus in rats): 100%

Structure (SMILES): C#CCN(C)C[C@@H]1C=C2c3cccc4[nH]cc(c34)C[C@H]2N(C)C1 [Example 8]
- Kb [2]: 0.741 nM
- mode of inhibition of serotonin constriction [2]: competitively inhibited
- uterotonic activity (isolated rat uterus): no uterotonic activity
- effect on adrenaline-induced vasopressoric response [10]: intensified
- affinity to M1 muscarinic receptor (M1 muscarinic receptor [11]): possessed affinity
- mode of inhibition of noradrenaline constriction ([12]; in words): competitively inhibited
- pA2 ([12]; vs noradrenaline): 6.39
- ED50 (D2 receptors [13]): 0.089 mg/kg
- Ki (D1 receptor; D1, [^3 H]SCH23390): 87 nM
- affinity for D1 receptors (D1 receptor; in words): lower
- affinity to 5-HT1A receptor [4]: possessed affinity
- Ki (D2 receptor): 3.8 nM
- affinity for D2 receptors (D2 receptor): high affinity
- dilatation of the pupil (pupil): strong dilatation of the pupil
- functional activity at sigma receptor (sigma receptor [5]): indicated an antagonistic activity
- ED50 [14]: 17.1 mg/kg
- ED50 (D2 receptors [15]): 0.44 mg/kg
- functional activity at M1 muscarinic receptor (M1 muscarinic receptor [16]): indicated an antagonistic activity
- mean increase in diastolic pressure (pithed rats; 450 μg/kg i.v.): 20%
- ED50 [17]: 0.37 mg/kg
- effect on carotid artery pressure ([6]; in words): strong and sustained decrease in carotid artery pressure
- maximum reduction in carotid artery pressure [6]: 20%
- reduction in heart rate [6]: less than 20%
- Ki (5-HT2 receptor): 10 nM
- affinity for 5-HT2 receptors (5-HT2 receptor): high affinity
- antipsychotic action [18]: strongest antipsychotic action
- side effect liability [18]: lesser degree of probability of the development of extrapyramidal, central depressant and hypotensive side effects
- inhibition of oxotremorine-induced tremor (acetylcholine receptors): dose-dependent inhibition
- affinity to sigma receptor (sigma receptor [7]): possessed affinity
- venous constriction [19]: minimal venous constriction
- ED50 (catalepsy in rats): 0.29 mg/kg
- cataleptic action compared with haloperidole (rats): lesser than the action caused by the typical antipsychotic haloperidole
- IC50 [8]: 1.85 nM
- functional activity at 5-HT1A [9]: did not indicate any activity
- ED50 [20]: 8.4 mg/kg
- depressant action on the level of CNS (mice): several times lower depressant action on the level of CNS if compared with haloperidol
- pA2 [21]: 6.63
- affinity for α1 receptors (α1 receptor; in words): lower
- Ki (α1 receptor; α1, [^3 H]Prazosin): 245 nM
- ID50, noradrenaline-induced lethality (α1 receptors): 3.75 mg/kg
